Measurements from patent publication US11179412B2, “Methods of treating conditions involving elevated inflammatory response” (University of Pittsburgh—Of the Commonwealth System of …, priority 2017, dated 2021).

Each compound was assayed on STING activation (IFNβ release) in iBMDMs (assay: IFNβ release ELISA after STING ligand (or LPS) stimulation, iBMDMs). Conditions: iBMDMs; 3′3′-cGAMP 10 μg/ml, 16 hours; compound 10 μM.
Format: cell-based, mouse
How it was run: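 IFNβ released into the medium was quantified by ELISA (mouse or human kit) after iBMDM stimulation with the canonical STING agonist 3′3′-cGAMP or with LPS.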

Compound | fold increase in IFN-β release
CC(C)NCCCn1c(Sc2cc3c(cc2I)OCO3)nc2c(N)ncnc21 [PU-H71] | 1.13 fold
Cn1cc(C2=C(c3cn(C4CCN(Cc5ccccn5)CC4)c4ccccc34)C(=O)NC2=O)c2ccccc21 [Enzastaurin (LY317615), Enzastaurin] | 1.02 fold
O=C(/C=C/c1cccc(S(=O)(=O)Nc2ccccc2)c1)NO [Belinostat (PXD101), Belinostat] | 0.70 fold
O=C(C[S+]([O-])Cc1ccco1)NC/C=C\COc1cc(CN2CCCCC2)ccn1 (stereo not shown) [Lafutidine] | 2.85 fold
COc1ccc2nc([S@@+]([O-])Cc3ncc(C)c(OC)c3C)[nH]c2c1 [Esomeprazole Sodium] | 0.95 fold
COc1ccccc1N1CCN(CC(O)COc2cccc3ccccc23)CC1 (stereo not shown) [Naftopidil] | 2.46 fold
CC(C)(C)Cn1c(N)nc2ccc(-c3[nH]c(C(C)(C)C)nc3-c3ccc(F)cc3)nc21 [LY2228820] | 5.15 fold
VU 0364770 | 2.00 fold
NC(=O)N1c2ccccc2CC(=O)c2ccccc21 [Oxcarbazepine] | 5.22 fold
NC(=O)Nc1sc(-c2ccc(F)cc2)cc1C(N)=O [TPCA-1] | 2.63 fold
N#CC[C@H](C1CCCC1)n1cc(-c2ncnc3[nH]ccc23)cn1 [Ruxolitinib (INCB018424), Ruxolitinib] | 0.20 fold
O=C(O)/C=C/c1ccc(Cn2ccnc2)cc1 [Ozagrel] | 0.11 fold
Cc1c(C(=O)NN2CCCCC2)nn(-c2ccc(Cl)cc2Cl)c1-c1ccc(Cl)cc1 [Rimonabant] | 0.81 fold
COc1cc2c(cc1-c1c(C)noc1C)ncc1[nH]c(=O)n([C@H](C)c3ccccn3)c12 [I-BET151 (GSK1210151A)] | 0.40 fold
CCOc1ccccc1-n1c(C(C)N2CCN(C(=O)COc3ccc(Cl)cc3)CC2)nc2ccccc2c1=O (stereo not shown) [Erastin] | 4.52 fold
CC(C)c1ccc(NC(=O)Cn2cnc3c2c(=O)n(C)c(=O)n3C)cc1 [HC-030031] | 1.05 fold
O=C(Oc1cc(S(=O)(=O)c2ccccc2)ccc1[N+](=O)[O-])c1ccc(Cl)cc1 [BTB06584] | 3.11 fold
CC[C@@H]1/C=C/C=C/C[C@H](C)[C@H](O)[C@](C)(O)C(=O)[C@H](C)[C@@H](O)[C@H](C)C(=O)[C@H](C)[C@@H](O)[C@H](C)/C=C/C(=O)O[C@H]2[C@@H](C)[C@@H](CC1)O[C@@]1(CC[C@@H](C)[C@@H](C[C@H](C)O)O1)[C@@H]2C [Oligomycin A] | 2.49 fold
Cc1ccc(NCCCc2ccccc2)c(N)c1 [JSH-23] | 2.80 fold
CN(Cc1cnc2nc(N)nc(N)c2n1)c1ccc(C(=O)N[C@@H](CCC(=O)O)C(=O)O)cc1 [Methotrexate] | 0.68 fold
C=CCc1cccc(/C=N/NC(=O)CN2CCN(Cc3ccccc3)CC2)c1O [PAC-1] | 0.17 fold
C=CC(=O)Nc1cccc(Oc2nc(Nc3ccc(N4CCN(C)CC4)cc3OC)ncc2Cl)c1 [WZ4002] | 1.42 fold

Compound | fold increase in IFN-β release
O=C(NNc1ccccc1)c1ccncc1 [PluriSln #1 (NSC 14613)] | 0.62 fold
C#CCC(Cc1cnc2nc(N)nc(N)c2n1)c1ccc(C(=O)N[C@@H](CCC(=O)O)C(=O)O)cc1 (stereo partly shown) [Pralatrexate] | 4.31 fold
CO[C@H]1C[C@@H]2CC[C@@H](C)[C@@](O)(O2)C(=O)C(=O)N2CCCC[C@H]2C(=O)O[C@H]([C@H](C)C[C@@H]2CC[C@@H](OC(=O)C(C)(CO)CO)[C@H](OC)C2)CC(=O)[C@H](C)/C=C(\C)[C@@H](O)[C@@H](OC)C(=O)[C@H](C)C[C@H](C)/C=C/C=C/C=C/1C [Temsirolimus (CCI-779, NSC 683864), Temsirolimus] | 0.73 fold
CCc1cncnc1N1CCN(Cc2nc3ccc(C(F)(F)F)cc3[nH]2)CC1 [PF-4708671] | 2.12 fold
CCOC(=O)c1ccc(NC2CCCCC2)c(N)c1 [Ferrostatin-1 (Fer-1), Ferrostatin-1] | 2.54 fold
O=C(Nc1cccnc1)N1CCC(Cc2cccc(Oc3ccc(C(F)(F)F)cn3)c2)CC1 [PF-3845] | 2.14 fold
Cc1ccc2c(=O)c3cccc(CC(=O)O)c3oc2c1C [DMXAA (Vadimezan), 5,6-dimethylxanthenone-4-acetic acid] | 3.23 fold
Cc1c(C(=O)Nc2ccc(N3C[C@@H](C)O[C@@H](C)C3)nc2)cccc1-c1ccc(OC(F)(F)F)cc1 [LDE225 (NVP-LDE225, Erismodegib), Erismodegib] | 1.31 fold
Cc1ccc([C@@H]2O[C@H](CO)[C@@H](O)[C@H](O)[C@H]2O)cc1Cc1ccc(-c2ccc(F)cc2)s1 [Canagliflozin] | 1.58 fold
Nc1ncnc2c1c(-c1cccc(OCc3ccccc3)c1)cn2C1CC(CN2CCCC2)C1 (stereo not shown) [NVP-ADW742] | 0.61 fold
CC(C)(F)C[C@H](N[C@@H](c1ccc(-c2ccc(S(C)(=O)=O)cc2)cc1)C(F)(F)F)C(=O)NC1(C#N)CC1 [Odanacatib (MK-0822), Odanacatib] | 0.90 fold
CNC(=O)[C@H](Cc1c[nH]c2ccccc12)NC(=O)[C@@H](CC(=O)NO)CC(C)C [Ilomastat (GM6001, Galardin), Ilomastat] | 1.81 fold
Nc1cccc(-c2cc3c(Oc4cccc(O)c4)ncnc3[nH]2)c1 [TWS119] | 0.35 fold
c1cc(-c2cnn3cc(-c4ccc(N5CCNCC5)cc4)cnc23)c2cccnc2c1 [LDN-212854] | 0.33 fold
COc1ccc(CNCc2cccc3ccccc23)cc1.Cl [ML133 HCl] | 0.59 fold
O=[N+]([O-])C=Cc1ccc2c(c1)OCO2 [3,4-Methylenedioxy-β-nitrostyrene] | 0.26 fold
COc1cc(Nc2c(C#N)cnc3cc(OCCCN4CCN(C)CC4)c(OC)cc23)c(Cl)cc1Cl [Bosutinib (SKI-606), Bosutinib] | 1.78 fold
O[C@@H](COc1cccc2ncccc12)CN1CCN([C@@H]2c3ccccc3[C@@H]3[C@H](c4ccccc42)C3(F)F)CC1 [Zosuquidar (LY335979) 3HCl, Zosuquidar] | 4.10 fold
CCn1c(N)c(C(=O)NC)c(=O)c2ccc(C#C[C@@](C)(O)COC)nc21 [SAR131675] | 1.13 fold
N#CSc1cc(SC#N)c(N)nc1N [PR-619] | 0.79 fold
CC(C)(C)c1cc(NC(=O)Nc2ccc(-c3cn4c(n3)sc3cc(OCCN5CCOCC5)ccc34)cc2)no1 [Quizartinib (AC220), Quizartinib] | 0.91 fold
